The values below come from patent publication US10603261B2, “Composition for enhancing hair fiber properties” (The Procter & Gamble Company, priority 2014, dated 2020).

The nature of the test: Combing force after leave-on hair treatment using neat material. Conditions: hair treated with neat material; 1 and 5 washes. The text has this: This double combing apparatus is attached to an Instron Model 5564. The switch is combed 5 times with a fine-tooth comb and hanged onto the Instron load cell. Then, the hair switch is placed in the double comb apparatus. The Instron pulls the hair vertically at a rate of 10 mm/min until the hair switch clears the final comb. The peak force as the switch passes through the top comb is reported.
The treatment is repeated to two additional switches. The treated hair switches are allowed to rest for 24 hours under controlled temperature and relative humidity conditions (27° C. and 50% RH). After this time period, each hair switch is washed with a clarifying shampoo (see shampoo washing protocol below) and allowed to air dry for 24 hours under controlled temperature and relative humidity conditions (27° C. and 50% RH). The combing force is measured for each switch and an average for the three switches is calculated. […] Linoleic acid • b.
Each application consists of adding shampoo to the hair, milking for 30 seconds followed by rinsing for 30 seconds. Shampoo is then reapplied (0.1 g/g), milked for 30 seconds and rinsed for 30 seconds.

For `CCCCCCCC/C=C\CCCCCCCC(=O)O` [Oleic acid], the “combability (in words)” value is “better combability”.
